Test results taken from patent publication US8846653B2, “Delta-tocotrienol treatment and prevention of pancreatic cancer” (University of South Florida, priority 2006, dated 2014).

Legend:
[1] = tested on: MiaPaCa2 pancreatic cancer cells; experiment: Cell death by trypan blue assay, 72 hours; type: cell-based, human; conditions: MiaPaCa2, 50 μM
Description: (§1) FIGS. 38A and B are graphs showing the effect of tocotrienols on pancreatic cancer survival (Trypan Blue and Cell death ELISA). […] T3=tocotrienol, T=tocopherol, vit E=vitamin E succinate, gem=gemcitabine, 5-FU=fluorouracil.
(§2) MIA PaCa2 cells (3×10^3) were plated in 96 well plates and treated the following day with different compositions of tocoperhol, tocotrienol, gemcitabine, or fluorouracil. The cells were harvested 72 hours later and tested using trypan blue assay and cell death ELISA.

[2] = tested on: p27^kip1 luciferase reporter; experiment: p27^kip1 luciferase reporter assay; type: cell-based, human; conditions: Mia PaCa2, 20 μM, 24 hours
Description: The mechanism by which δ-tocotrienol upregulates p27^kip1 protein expression was investigated using a luciferase reporter assay. Mia PaCa2 cells transfected with a p27^kip1 luciferase reporter (Wang, et al. Activation of p27Kip1 Expression by E2F1. A negative feedback mechanism. J Biol. Chem. 2005 Apr. 1; 280(13):12339-43. Epub 2005 Feb. 14) were treated with either δ-tocotrienol (20 μM) or vehicle for 24 hours and luciferase activity was then measured using a luminometer.

[3] = tested on: MiaPaCa2 pancreatic cancer cells; experiment: Effect of tocotrienols on pancreatic cancer proliferation (MTT), 72 hours; type: cell-based, human; conditions: MiaPaCa2, 40 to 100 μM, vs vehicle
Source text: (§3) FIGS. 11A and B are graphs showing the effect of tocotrienols on pancreatic cancer proliferation (MTT). […] Points, means; bars, SE (n=3).

[4] = tested on: AsPc1 pancreatic cancer cells; experiment: as above; type: cell-based, human; conditions: AsPc1, 40 to 100 μM, vs vehicle
Source text: as §3

[5] = tested on: MiaPaCa2 pancreatic cancer cells; experiment: Malignant transformation (Soft Agar) colony formation; type: cell-based, human; conditions: MiaPaCa2, 50 μM, vs vehicle
Description: FIG. 20 is a graph showing the effect of tocotrienols on pancreatic cancer malignant transformation (Soft Agar). […] Bars, SE (n=3). *p<0.001 vs. vehicle. **p<0.02 vs. vehicle. ***p<0.05 vs. vehicle. T=tocopherol, T3=tocotrienol.
MiaPaCa2 cells (3×10^3) were cultured as described in the Examples above, in 96-well plates and treated with 50 μM of different tocopherol or tocotrienol.

[6] = tested on: MiaPaCa2 pancreatic cancer cells; experiment: Apoptosis by cell death ELISA, 72 hours; type: cell-based, human; conditions: MiaPaCa2, 50 μM
Description: as §1, §2

[7] = tested on: pancreatic cancer metastasis; experiment: Pancreatic cancer metastasis in vivo (luminescence); set-up: species or system mouse
Source text: Images show comparison of vehicle vs. 100 MPK
The apoptotic effect of delta-tocotrienol was selective for neoplastic cells as normal pancreatic cells and in vitro immortalized human pancreatic ductal epithelial cells were not sensitive to delta-tocotrienol.

MiaPaCa-2 cells = experiment: MTS assay of MiaPaCa2 cultures, single 50 μM dose; type: cell-based, human; conditions: MiaPaCa2, 50 μM
Description: MiaPaCa-2 cells were cultured in complete DMEM media containing 10% fetal bovine serum (FBS) and 1% penicillin-streptomycin, and 1% L-glutamine. BxPc-3 pancreatic cancer cells were cultured in complete RPMI media containing 10% fetal bovine serum (FBS), and 1% penicillin-streptomycin, 1% HEPES buffer, 1% sodium pyruvate and 1% L-glutamine HPDE6-C7 cells were cultured in serum-free keratinocyte SFM media. All cells were maintained at 37° C. in a humidified incubator with 5% CO2. The cells were treated with a single 50 μM dose of vehicle (vehicle only, may be a solvent), T3 alpha (alpha tocotrienol), T3 beta (beta tocotrienol), T3 gamma (gamma tocotrienol), T3 delta (delta tocotrienol), T alpha (alpha tocopherol), T beta (beta tocopherol), TS (tocopherol succinate), GG (geranylgeraniol), SA (succinic acid). A control (no treatment) culture was grown alongside the treatments for comparison. […]

[8] = tested on: human pancreatic ductal epithelial cells transformed with oncogenic K-ras (HPDE-K-ras); experiment: Proliferation (MTT) of K-ras transformed ductal epithelial cells; type: cell-based; conditions: 72 hours
Description: FIGS. 36A and B are graphs showing the effect of tocotrienols on Human Pancreatic Ductal Epithelial Kras Transformed cells (MTT). (A) Tocotrienols (10-100 μM) had no effect on the proliferation of normal immortalized human pancreatic ductal epithelial cells at 72 hours. […] Points, means; bars, SE (n=3). *p<0.001 vs. vehicle. # p<0.02 vs. vehicle
The Ras effector pathways Raf-MEK-ERK and PI3 kinase-AKT are important for cell proliferation and survival, respectively. Pancreatic cancer cell lines (MIA PaCa2, SW1990, BXPC3) and HPDE 6C7 cells were treated with 8-tocotrienol (20 μM) and cell lysates were collected and prepared at progressive time intervals as described above. Proteins from lysates were run by SDS PAGE and immunoblotted with the following antibodies: Ras, p-cRaf (ser 338), p-MEK1/2, MEK1/2, pERK 44/42, ERK 44/42 (Cell Signaling) and c-Raf (BD Transduction Laboratories). […] The MIA PaCa2 and SW1990 cells were then tested for AKT inhibition. The cells were treated with δ-tocotrienol (20 μM) for 24 and 48 hours and cell lysates were run by SDS-PAGE and immunoblotted for p-AKT and AKT (Cell Signaling). […] Taken together, the inhibition of downstream effectors of oncogenic Ras signaling by δ-tocotrienol without an effect on Ras protein levels may indicate a negative regulatory role of 8-tocotrienol on the function of oncogenic Ras. The pancreatic ductal epithelial cell proliferative inhibition by δ-tocotrienol was tested to see if it occurs through blocking aberrant signal transduction cascades. Immortalized human pancreatic ductal epithelial cells (HPDE) and human pancreatic ductal epithelial cells that were transformed by stable transfection of a mutated K-ras oncogene (HPDE-K-ras) were used to test the. effect of tocotrienols on the proliferation of HPDE and HPDE-K-ras.

**Q.** How did the “cell death (Trypan Blue)” value [1] turn out when `CC(C)=CCC/C(C)=C/CC/C(C)=C/CC[C@]1(C)CCc2cc(O)cc(C)c2O1` [T3 delta, delta tocotrienol] was run?
**A.** significantly induced the death

**Q.** And the “luciferase activity (p27^kip1 reporter)” value [2]?
**A.** increase in luciferase activity

**Q.** What about the “proliferation (MTT)” value [3] of the same molecule?
**A.** significantly decreased the proliferation

**Q.** What about the “proliferation (MTT)” value [4] of the same molecule?
**A.** significantly decreased the proliferation

**Q.** What about the “malignant transformation (Soft Agar)” value [5] of the same molecule?
**A.** significantly inhibited the malignant transformation

**Q.** What about the “apoptosis (Cell death ELISA)” value [6] of the same molecule?
**A.** significantly induced

**Q.** What about the “tumor response at the highest dose” value ([7]; highest dose, compared to vehicle/PBS) of the same molecule?
**A.** tumor regression

**Q.** What about the pancreatic cancer metastasis ([7]; in vivo, vs vehicle/PBS) of the same molecule?
**A.** inhibits pancreatic cancer metastasis

**Q.** And the “rel amt (relative value set to the control)” value (“relative value set” for short) (MiaPaCa-2 cells; 24 hours)?
**A.** 77

**Q.** And the “MTS assay result, run 1” value (MiaPaCa-2 cells; 24 hours)?
**A.** 0.174

**Q.** What about the “MTS assay result, run 2” value (MiaPaCa-2 cells; 24 hours) of the same molecule?
**A.** 0.159

**Q.** And the “MTS assay result, run 3” value (MiaPaCa-2 cells; 24 hours)?
**A.** 0.171

**Q.** And the “MTS assay result, run 4” value (MiaPaCa-2 cells; 24 hours)?
**A.** 0.139

**Q.** And the “MTS assay result, run 5” value (MiaPaCa-2 cells; 24 hours)?
**A.** 0.185

**Q.** What about the “MTS assay result, run 6” value (MiaPaCa-2 cells; 24 hours) of the same molecule?
**A.** 0.187

**Q.** And the “MTS assay result, run 7” value (MiaPaCa-2 cells; 24 hours)?
**A.** 0.18

**Q.** What about the “MTS assay result, run 8” value (MiaPaCa-2 cells; 24 hours) of the same molecule?
**A.** 0.167

**Q.** And the “MTS assay result, run 9” value (MiaPaCa-2 cells; 24 hours)?
**A.** 0.170

**Q.** What about the “relative value set” value (MiaPaCa-2 cells; 48 hours) of the same molecule?
**A.** 67

**Q.** What about the “MTS assay result, run 1” value (MiaPaCa-2 cells; 48 hours) of the same molecule?
**A.** 0.229

**Q.** And the “MTS assay result, run 2” value (MiaPaCa-2 cells; 48 hours)?
**A.** 0.22

**Q.** What about the “MTS assay result, run 3” value (MiaPaCa-2 cells; 48 hours) of the same molecule?
**A.** 0.218

**Q.** What about the “MTS assay result, run 4” value (MiaPaCa-2 cells; 48 hours) of the same molecule?
**A.** 0.232

**Q.** And the “MTS assay result, run 5” value (MiaPaCa-2 cells; 48 hours)?
**A.** 0.294

**Q.** And the “MTS assay result, run 6” value (MiaPaCa-2 cells; 48 hours)?
**A.** 0.272

**Q.** What about the “MTS assay result, run 7” value (MiaPaCa-2 cells; 48 hours) of the same molecule?
**A.** 0.221

**Q.** And the “MTS assay result, run 8” value (MiaPaCa-2 cells; 48 hours)?
**A.** 0.243

**Q.** What about the “MTS assay result, run 9” value (MiaPaCa-2 cells; 48 hours) of the same molecule?
**A.** 0.241

**Q.** And the “relative value set” value (MiaPaCa-2 cells; 72 hours)?
**A.** 132

**Q.** What about the “MTS assay result, run 1” value (MiaPaCa-2 cells; 72 hours) of the same molecule?
**A.** 0.667

**Q.** And the “MTS assay result, run 2” value (MiaPaCa-2 cells; 72 hours)?
**A.** 0.615

**Q.** What about the “MTS assay result, run 3” value (MiaPaCa-2 cells; 72 hours) of the same molecule?
**A.** 0.605

**Q.** What about the “MTS assay result, run 4” value (MiaPaCa-2 cells; 72 hours) of the same molecule?
**A.** 0.587

**Q.** What about the “MTS assay result, run 5” value (MiaPaCa-2 cells; 72 hours) of the same molecule?
**A.** 0.582

**Q.** And the “MTS assay result, run 6” value (MiaPaCa-2 cells; 72 hours)?
**A.** 0.491

**Q.** What about the “MTS assay result, run 7” value (MiaPaCa-2 cells; 72 hours) of the same molecule?
**A.** 0.524

**Q.** And the “MTS assay result, run 8” value (MiaPaCa-2 cells; 72 hours)?
**A.** 0.604

**Q.** What about the “MTS assay result, run 9” value (MiaPaCa-2 cells; 72 hours) of the same molecule?
**A.** 0.584

**Q.** What about the “proliferation (MTT)” value [8] of the same molecule?
**A.** significantly inhibited
